Assay results taken from patent US12474327B2, “Metabolic profiling for the diagnosis of a subset of idiopathic autism spectrum disorder patients, ADS Phenotype 1” (STALICLA SA, priority 2018, dated 2025).

Tests used:
[1] = test system: ASD non-Phenotype 1 lymphoblastoid cell lines (LCLs); assay: Energy production capacity (NADH, tetrazolium colorimetric assay, Biolog Phenotype Mammalian MicroArrays); format: cell-based, human; settings: for energy production capacity: ASD non-Phenotype 1 LCLs, in presence of D-Glucose
Experimental: (§1) The data reported in the present patent were generated from lymphoblastoid cell lines (LCLs) generated from lymphocytes from peripheral blood. Tubes containing anticoagulant citrate dextrose (ACD) were used to collect blood samples via venipuncture, in order to ensure that the blood cells remained metabolically active. The tubes were kept at room temperature and processed within 24 hours.
(§2) Cell lines were obtained by immortalization of lymphocytes from blood samples using Epstein-Barr virus. The lymphoblastoid cell lines were harvested in Sigma RPMI-1640 with 75 mL fetal bovine serum from Atlanta Biological (Lawrenceville, GA, USA) and 5 mL L-Glutamine and 5 mL antibiotic/antimycotic from Sigma-Aldrich (St. Louis, MO, USA).
(§3) Energy production of cells was measured using commercially available Phenotype Mammalian MicroArrays (PM-Ms, Biolog, Hayward, CA, USA).
(§4) The compound in each well was designed to be used by the cells, either as the sole energy source or as the metabolic effector influencing the utilization of an energy source (D-glucose) added in the cell suspension. The production of NADH per well was monitored using a colorimetric redox dye chemistry (Bochner et al. Assay of the multiple energy-producing pathways of mammalian cells. PLoS One 2011, 6(3):e18147). Before plating, cell viability and number were assessed utilizing a BioRad cell counter and a trypan blue dye.
(§5) The concentration of live cells required for plating was 4×10^5 cells/mL, corresponding to 20,000 cells per well in a volume of 50 μL. Only cell lines with viability of 55% or above were utilized for the experiments and, in order to minimize artifacts and biases due to prolonged cell culturing of transformed cells, LCLs were not been utilized if they had reached 15 passages. Cells were incubated for 48 h at 37° C. in 5% CO2, using the modified Biolog IF-M1 medium.
(§6) The Biolog IF-M1 medium was modified for plates PM-M1 by adding the following to 100 mL of Biolog IF-M1: 1.1 mL of 100× penicillin/streptomycin solution, 0.16 mL of 200 mM glutamine (final concentration 0.3 mM), and 5.3 mL of Fetal Bovine Serum (FBS, final concentration 5%). For plates PM-M6, 5.5 mM α-D-glucose was added instead of FBS.
(§7) After this first incubation, Biolog Redox Dye Mix MB was added (10 μL/well) and the plates were incubated under the same conditions for an additional 24 hours. As the cells metabolized the energy source, tetrazolium dye in the media was reduced, producing a purple color according to the amount of NADH generated.
(§8) For the last 24 hours of the experiment, plates were incubated in the Omnilog system, which collects optical density readings every 15 minutes, generating 96 data-points for each well. The system also elaborated the kinetic curve for the metabolic reaction in each well and extrapolated parameters such as slope, highest point, endpoint, area under the curve (AUC), and lag. The system performed parametric analysis by comparing kinetic curves of cases versus controls, both as individual sample or as cohorts.
(§9) At the end of the 24-hour incubation, plates were analyzed utilizing a microplate reader with readings at 590 and 750 nm. The first value (A590) indicated the highest absorbance peak of the redox dye and the second value (A750) gave a measure of the background noise. The relative absorbance (A590-750) was calculated per well.
(§10) Metabolic profiles of the same cell lines were then assessed after stimulation of the Nrf2 signaling pathway aiming to reproduce in control and Non-Ph1 cells the activation of the hub that occurs constitutively in ASD Ph1. In order to achieve the stimulation of the Nrf2 pathway, the cells were exposed to sulforaphane.

[2] = test system: ASD Phenotype 1 lymphoblastoid cell lines (LCLs); assay: as above; format: cell-based, human
Experimental: as §1, §2, §3, §4, §5, §6, §7, §8, §9, §10

[3] = test system: control lymphoblastoid cell lines (LCLs); assay: as above; format: cell-based, human; settings: for energy production capacity: in presence of D-Glucose
Experimental: as §1, §2, §3, §4, §5, §6, §7, §8, §9, §10

core symptoms of ASD = settings: ASD patients treated in Singh et al.; cited from earlier work
[4] = Singh K et al., PNAS 2014; cited from earlier work
ASD Phenotype 1 patients = settings: short oral treatment, described in EP 17200185.1; cited from earlier work

Structure (SMILES) | energy production capacity after pretreatment with sulforaphane (Nrf2 activation) ([1]; ASD non-Ph1 LCLs, in presence of glucose) | energy production capacity [1] | energy production capacity ([2]; Phenotype 1 cells, in the presence of D-Glucose, increasing concentrations) | energy production capacity ([3]; control LCLs) | energy production capacity after pretreatment with sulforaphane (Nrf2 activation) ([3]; control LCLs, in presence of glucose, addition of dibutyryl cAMP) | core symptoms of ASD (as measured by the ADOS 2) (core symptoms of ASD) | metabolic profile (PCA of energy production capacity) ([1]; ASD non-Phenotype 1 cells exposed to sulforaphane, various carbon sources of energy) | effect on the dibutyryl cAMP-induced increase of energy production capacity ([2]; ASD Ph1 cells, D-Glucose, treated with sulforaphane) | effect on energy production capacity ([2]; ASD Phenotype 1 cell lines, various carbon sources of energy (FIG. 1, FIG. 2: D-Glucose, maltose), exposed to sulforaphane) | metabolic profile (PCA of energy production capacity) ([3]; control cells exposed to sulforaphane, various carbon sources of energy) | tolerability of administration to humans [4] | toxicity [4] | behavioral response (ADI-r SI, ADI-r C or ADI-r RI) (ASD Phenotype 1 patients)
CCCC(=O)Nc1ncnc2c1ncn2[C@@H]1O[C@@H]2COP(=O)(O)O[C@H]2[C@H]1OC(=O)CCC [dibutyryl cAMP, dibutyril-cyclic adenosine monophosphate] | restituted | no effect | increased | no effect | restituted |  |  |  |  |  |  |  | 
C[S@@+]([O-])CCCCN=C=S [sulforaphane, 1-isothiocyanato-4R-(methylsulfinyl)butane] |  | produced a decrease |  | produced a decrease |  | significant improvements | comparable to Ph1 cells at baseline | did not modify the response to dibutyryl cAMP | lack of effect | comparable to Ph1 cells at baseline | well tolerated | low toxicity | negative behavioral response
